# Experimental data reported in patent US20050074463A1, “Therapeutic vaccination method, mutated peptides of hiv reverse transciptase and their use for vaccination and diagnostic purposes” (Universite Pierre et Marie Curie-paris VI, priority 2001, published 2005).
# Experiments:
# [1] = tested on: gamma-IFN-producing CD8 cells in PBMCs from patient 201#5; experiment: ELISpot-γIFN assay, ex vivo recognition of epitope peptides by PBMCs; conditions: PBMCs from patient 201#5 treated with NRTIs and carrying RT mutation 41 (M>L), no prior stimulation
# [2] = target: Mutated peptide 33-41 of HIV-1 reverse transcriptase (mutation 41 M>L) (HIV-1)
# [3] = target: Wild-type peptide 33-41 of HIV-1 reverse transcriptase (HIV-1)
substance,measurement,setting,value
ALVEICTEM [wild-type peptide 33-41],"frequency of recognition (cells secreting γIFN), SFC/10^6 PBMCs",[1],3 SFC/10^6 PBMCs
PBMCs from patient 201#5 (cells without a defined receptor),SFC/10^6 PBMCs (ELISpot gamma-IFN) (SFC/10^6 PBMCs),[2],95
same,SFC/10^6 PBMCs (ELISpot gamma-IFN) (SFC/10^6 PBMCs),[3],3
ALVEICTEL [mutated peptide 33-41],"frequency of recognition (cells secreting γIFN), SFC/10^6 PBMCs",[1],95 SFC/10^6 PBMCs
